The target of test [1] is T1, Leukotriene D4 (LTD4) receptor (Cavia porcellus, UniProt Q2NNR5).
T1 construct: guinea pigs' lung membrane fraction; from tissue; host or cells: guinea pig lung membrane fraction
T1 sequence (Q2NNR5 1-340): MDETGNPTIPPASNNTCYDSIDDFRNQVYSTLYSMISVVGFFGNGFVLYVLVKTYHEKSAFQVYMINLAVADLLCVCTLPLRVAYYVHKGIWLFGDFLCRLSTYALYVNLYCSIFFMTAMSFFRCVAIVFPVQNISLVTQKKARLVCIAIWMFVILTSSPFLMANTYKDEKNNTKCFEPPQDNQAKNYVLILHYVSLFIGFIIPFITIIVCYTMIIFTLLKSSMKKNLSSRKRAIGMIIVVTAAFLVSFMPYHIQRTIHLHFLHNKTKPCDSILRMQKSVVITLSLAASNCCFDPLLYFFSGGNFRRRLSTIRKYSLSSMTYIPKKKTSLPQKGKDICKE
The experiment in a line: Leukotriene D4 (LTD4) receptor antagonism ([3H]LTD4, guinea pigs' lung membrane fraction). Format: binding, guinea pig. As to conditions: read-out: Inhibition rate (%) LTD4 receptor; for inhibition at 1 µM: 10^-6 M; for inhibition at 0.1 µM: 10^-7 M; for inhibition at 0.01 µM: 10^-8 M. How it is done:
According to the method by S. S. Pong , and R. N. DeHaven (Proceedings of the National Academy of Sciences of the United States of America, 80, 7415-7419 (1983) , the leukotriene D4 (LTD4) receptor antagonism was measured by using [^3 H]LTD4 and guinea pigs' lung membrane fraction. The results are shown in Table 5.

Test [2] has as its system lipoperoxide formation in rat's brain homogenate. The test is described as follows: Inhibitory action for lipoperoxide formation in rat's brain homogenate (thiobarbituric acid method). Format: biochemical. As to conditions: read-out: IC50 (M) × 10^-7. How it is done: According to the method by Suno et al. (Japan J. Pharmacol., 35, 196(1984) , the concentration of the compound necessary for 50% inhibition of lipoperoxide formation in rat's brain homogenate was determined by examining the lipoperoxide formation using the thiobarbituric acid method. The results obtained are shown in Table 3.

Test [3] deals with T2, 5-lipoxygenase (Rattus norvegicus, UniProt P12527).
T2 construct: endogenous in cells; host or cells: RBL-1 (rat basophilic leukemia cells)
T2 sequence (P12527 1-673): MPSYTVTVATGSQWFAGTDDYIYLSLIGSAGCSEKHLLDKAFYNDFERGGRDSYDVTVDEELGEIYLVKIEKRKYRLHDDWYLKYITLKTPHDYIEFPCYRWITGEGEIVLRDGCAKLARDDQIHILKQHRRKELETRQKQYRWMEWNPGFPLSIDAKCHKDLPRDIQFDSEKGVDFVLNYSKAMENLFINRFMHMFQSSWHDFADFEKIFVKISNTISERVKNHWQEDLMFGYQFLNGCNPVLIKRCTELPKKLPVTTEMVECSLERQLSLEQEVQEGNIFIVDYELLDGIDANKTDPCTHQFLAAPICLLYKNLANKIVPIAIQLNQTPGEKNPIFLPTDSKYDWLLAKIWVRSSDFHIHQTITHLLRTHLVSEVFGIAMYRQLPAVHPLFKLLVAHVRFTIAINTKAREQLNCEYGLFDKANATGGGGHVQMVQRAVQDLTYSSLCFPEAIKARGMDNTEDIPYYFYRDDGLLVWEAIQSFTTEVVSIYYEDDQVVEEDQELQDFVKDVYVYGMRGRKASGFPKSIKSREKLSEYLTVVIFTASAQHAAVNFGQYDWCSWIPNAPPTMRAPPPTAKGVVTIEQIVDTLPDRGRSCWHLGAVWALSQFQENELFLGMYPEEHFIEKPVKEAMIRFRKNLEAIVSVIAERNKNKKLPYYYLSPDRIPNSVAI
The experiment in a line: Inhibitory action on 5-lipoxygenase (5-HETE formation in RBL-1 cells). The format is cell-based. Particulars: read-out: Inhibition rate (%) of 5-HETE formation; for inhibition at 1 µM: 10^-6 M; for inhibition at 0.1 µM: 10^-7 M; for inhibition at 0.01 µM: 10^-8 M. How it is done:
RBL-1 cells (rat basophilic leukemia cells) of 10^7 were suspended in 0.9 ml of MCM (mast cell medium). […] The mixture was incubated at 37° C. for 5 minutes. Then, 0.1 ml of MCM containing 50 μg of arachidonic acid and 10 μg of calcium ionophore A-23187 was added and further the mixture was incubated at 37° C. for 15 minutes. After the reaction, 1 ml of ethanol was added, well shaken and subjected to high performance liquid chromatography to determine 5-HETE. The absorption at 240 nm due to 5-HETE was measured by an ultraviolet abosorption monitor. The inhibition rate of 5-HETE formation is represented by (1-b/a)×100, wherein a is the peak height or area in the absence of the compound (I) and b is that in the presence of the compound (I).

For test [4], the system named is formation of HHT (12-hydroxyheptadeca-5,8,10-trienoic acid) in rat's platelet. The experiment in a line: Inhibitory action for the formation of HHT in rat's platelet. The format is cell-based. As to conditions: rat platelet rich plasma, read-out: Inhibition rate (%) of HHT formation; for inhibition at 100 µM: 10^-4 M; for inhibition at 10 µM: 10^-5 M; for inhibition at 1 µM: 10^-6 M. How it is done:
Eight ml of blood was gathered from the abdominal aorta of a rat (JcI : Wistar, male, 12-15 weeks age) subjected to abdominal incision under anesthesia by the use of 3.2 % sodium citrate (1 volume of sodium citrate solution to 9 volume of whole blood). The blood was centrifuged at 800 rpm for 10 minutes at room temperature to gather PRP (platelet rich plasma), and the residual blood was further centrifuged at 3000 rpm for 10 minutes to gather PPP (platelet poor plasma). The platelet number in PRP was measured and the PRP was adjusted by diluting with PPP so that the concentration of platelet was one million/μl. To 0.25 ml of the PRP, 125 μg of arachidonic acid and the test compound (the final concentration of 100 μM, 10 μM, 1 μM and 0.1 μM) were added, and the mixture was incubated at 37° C. for 15 minutes. After the reaction, 1.1 ml of ethanol was added, well shaken and centrifuged at 2000 rpm for 10 minutes to separate the supernatant. To 1 ml of the supernatant 1 ml of water was added and subjected to high performance liquid chromatography to determine HHT. The absorption at 240 nm due to HHT was measured by an ultraviolet absorption monitor. […]

In test [5] the test system is Behavior change due to the spinal intrathecal injection of ferrous chloride in mice. The test is described as follows: Behavior change due to spinal intrathecal injection of ferrous chloride in mice. Format: in vivo, Slc:ICR mouse. As to conditions: 100 mg/kg p.o., 30 min before i.t. ferrous chloride; for Average score, 100 mg/kg dose: scale 0 (normal) to 5 (death); for Inhibition rate (%): vs saline. How it is done:
In male Slc : ICR mouse of 5 weeks age 10 mice per group were used. […] The evaluation point of behavior change was scored according to the following criterion.
The inhibition rate was shown based on the evaluation point under the above criterion. The test compound was orally administered 30 minutes before the i.t. injection of ferrous chloride.

As usually defined, the inhibition is the relative decrease from the control value, in per cent. Usually IC50 stands for the concentration needed to halve the response being measured.

Structures can show the parent of a compound that is named as a salt.

Take `Cc1ccc(C=Cc2nc3c(s2)NCCCC3)cc1` [Example 6, 2-(4-Methylstyryl)-5,6,7,8-tetrahydro-4H-thiazolo[5,4-b]-azepine]: in test [1], the inhibition at 1 µM came to 100%, the inhibition at 0.1 µM was 94.3% and the inhibition at 0.01 µM is 64.4%. Further, the IC50 in test [2] was determined as 7e-07 M.

Take `Clc1ccc(C=Cc2nc3c(s2)NCCCC3)cc1Cl` [Example 20, 2-(3,4-Dichlorostyryl)-5,6,7,8-tetrahydro-4H-thiazolo[5,4-b]azepine]: in test [3], the inhibition at 1 µM is 100%, the inhibition at 0.1 µM was 44% and the inhibition at 0.01 µM turned out to be 2%. In test [4], the inhibition at 100 µM came to 96%, the inhibition at 10 µM amounted to 43% and the inhibition at 1 µM stood at 18%.

As to `CS(=O)(=O)N1CCCCc2nc(-c3ccncc3)sc21` [Example 41, 4-Methanesulfonyl-2-(4-pyridyl)-5,6,7,8-tetrahydro-4H-thiazolo[5,4-b]azepin], in test [4], the inhibition at 100 µM turned out to be 87%, the inhibition at 10 µM was 63% and the inhibition at 1 µM came out at 23%.

Regarding `COc1ccc(C=Cc2nc3c(s2)NCCCC3)cc1OC.Cl` [Example 16, 2-(3,4-Dimethoxystyryl)-5,6,7,8-tetrahydro-4H-thiazolo[5,4-b]azepine hydrochloride], in test [5], the “Average score, 100 mg/kg dose” value worked out at 0.3 and the “Inhibition rate (%)” value worked out at 94.0%.

For `COc1ccc(-c2nc3c(s2)NCCCC3)cc1` [Example 5, 2-(4-Methoxyphenyl)-5,6,7,8-tetrahydro-4H-thiazolo[5,4-b]azepine hydrochloride], in test [5], the “Average score, 100 mg/kg dose” value is on record as 0.9 and the “Inhibition rate (%)” value came to 82.0%.

Turning to `Fc1ccccc1-c1nc2c(s1)NCCCC2` [Example 23, 2-(2-Fluorophenyl)-5,6,7,8-tetrahydro-4H-thiazolo [5,4-b]azepine], the IC50 in test [2] amounted to 1.2e-06 M.

Consider `c1ccc(-c2nc3c(s2)NCCCC3)cc1` [Example 26, 2-Phenyl-5,6,7,8-tetrahydro-4H-thiazolo[5,4-b]azepine], for which, in test [4], the inhibition at 100 µM worked out at 100%, the inhibition at 10 µM is 63% and the inhibition at 1 µM turned out to be 22%. In addition, the IC50 in test [2] was 1.2e-06 M.

On to `COc1ccccc1C=Cc1nc2c(s1)NCCCC2` [Example 12, 2-(2-Methoxystyryl)-5,6,7,8-tetrahydro-4H-thiazolo [5,4-b)azepine oxalate], for which the IC50 in test [2] came out at 6e-07 M.

For `O=[N+]([O-])c1ccc(C=Cc2nc3c(s2)NCCCC3)cc1` [Example 22, 2-(4-Nitrostyryl)-5,6,7,8-tetrahydro-4H-thiazolo-[5,4-b]azepine], in test [3], the inhibition at 1 µM worked out at 100%, the inhibition at 0.1 µM came to 49% and the inhibition at 0.01 µM is 4%.

In the case of `C(=Cc1nc2c(s1)NCCCC2)c1ccccc1` [Example 3, 2-Styryl-5,6,7,8-tetrahydro-4H-thiazolo[5,4-b]azepine], in test [4], the inhibition at 100 µM turned out to be 100%, the inhibition at 10 µM turned out to be 83% and the inhibition at 1 µM amounted to 22%.

Take `c1ccc2cc(-c3nc4c(s3)NCCCC4)ccc2c1` [Example 30, 2-(2-Naphthyl)-5,6,7,8-tetrahydro-4H-thiazolo [5,4-b]azepine]: in test [1], the inhibition at 1 µM was determined as 100%, the inhibition at 0.1 µM amounted to 98.8% and the inhibition at 0.01 µM was 76%.

Take `COc1ccc(C=Cc2nc3c(s2)NCCCC3)cc1` [Example 2, 2-(4-Methoxystyryl)-5,6,7,8-tetrahydro-4H-thiazolo[5,4-b]azepine]: in test [5], the “Average score, 100 mg/kg dose” value is recorded as 1.2 and the “Inhibition rate (%)” value is recorded as 74.5%. Also, in test [3], the inhibition at 1 µM was determined as 100%, the inhibition at 0.1 µM came to 56% and the inhibition at 0.01 µM stood at 14%. For the same compound, in test [4], the inhibition at 100 µM is 100%, the inhibition at 10 µM was 58% and the inhibition at 1 µM was found to be 16%.

Turning to `O=[N+]([O-])c1ccc(-c2nc3c(s2)NCCCC3)cc1` [Example 24, 2-(4-Nitrophenyl)-5,6,7,8-tetrahydro-4H-thiazolo[5,4-b]azepine], in test [3], the inhibition at 1 µM was 93%, the inhibition at 0.1 µM worked out at 53% and the inhibition at 0.01 µM is 26%.

For the compound `COc1ccc(C=CC=Cc2nc3c(s2)NCCCC3)cc1` [Example 9, 2-[4-(4-Methoxyphenyl)butadienyl]-5,6,7,8-tetrahydro-4H-thiazolo [5,4-b]azepine], in test [3], the inhibition at 1 µM amounted to 100%, the inhibition at 0.1 µM was 79% and the inhibition at 0.01 µM came out at 12%. Also, the IC50 in test [2] was found to be 7e-07 M.

`c1csc(-c2nc3c(s2)NCCCC3)c1` [Example 31, 2-(2-Thienyl)-5,6,7,8-tetrahydro-4H-thiazolo[5,4-b]azepine]: in test [4], the inhibition at 100 µM is 100%, the inhibition at 10 µM is 80% and the inhibition at 1 µM was determined as 19%.

For `CC(C)c1ccc(C=Cc2nc3c(s2)NCCCC3)cc1` [Example 8, 2-(4-Isopropylstyryl)-5,6,7,8-tetrahydro-4H-thiazolo[5,4-b]azepine], in test [1], the inhibition at 1 µM was determined as 94.6%, the inhibition at 0.1 µM worked out at 92.4% and the inhibition at 0.01 µM came out at 54.8%. The IC50 in test [2] turned out to be 7e-07 M.

With `CCOc1ccc(C=Cc2nc3c(s2)NCCCC3)cc1` [Example 7, 2-(4-Ethoxystyryl)-5,6,7,8-tetrahydro-4H-thiazolo[5,4-b]azepine], the IC50 in test [2] was 8e-07 M.

Regarding `C(=Cc1nc2c(s1)NCCCC2)c1ccc2c(c1)OCO2` [Example 13, 2-(3,4-Methylenedioxystyryl)-5,6,7,8-tetrahydro-4H-thiazolo[5,4-b]azepine hydrochloride], in test [1], the inhibition at 1 µM was found to be 100%, the inhibition at 0.1 µM was 92.5% and the inhibition at 0.01 µM turned out to be 61%.

The record behind these values is US5300639A, “Thiazolo [5,4-b]azepine compounds” (Takeda Chemical Industries, Ltd., priority 1992, dated 1994).
